Tests used:
[1] = system: adhesion of Candida albicans to human Buccal Epithelial Cells; experiment: microbe, parasite or virus in culture; assay type: cell-based; details: for incremental increase in adhesion inhibitory effect achieved by de-lipidisation (in brackets): versus Table 4
[2] = system: Staphylococcus aureus RN 4220; experiment: Comparative microbicidal suspension test, free vs emulsified fatty acids; assay type: cell-based
[3] = system: fresh sheep blood; experiment: Blood clotting time, visual tube comparison; details: between 0.5% and […] caprylic acid emulsified in 0.5% DLL
Protocol: Comparative measurement of accelerated clotting times is achieved using appropriate volumes of fresh blood mixed with a volume of test material, where the combined volumes totaled 5 ml in each case in a 15 ml graduated Greiner centrifuge tube (Greiner Bio-one, North Carolina, USA). Immediately after addition of fresh blood, the tubes are inverted twice to mix and allowed to stand without further agitation. Clot formation is visibly apparent when the tubes are tilted slightly, and once a clot formed its integrity was such that it would remain suspended when the tubes were inverted. In each test a 5 ml sample of fresh whole blood (undiluted) is used as a control.
Rate of blood clotting was determined using freshly aspirated sheep blood and apparatus and procedures described in the Methods section. An activated blood clotting meter was used to measure anti-clotting effects and a visual tube comparison to evaluate reduced clotting times.
Blood clotting and/or anti-clotting effects were assessed using a 20% ratio of test item to fresh blood: in practice 4.0 ml of fresh sheep blood was added to tubes containing 1.0 ml of test item, inverted twice to mix and then either left standing for visual assessment of reduced clotting time or a single drop was applied to the cuvette of an activated blood clotting apparatus for assessment of anti-clotting effect (extended time to clot formation).

[4] = system: Staphylococcus aureus; experiment: Ex-vivo wound model (beef brisket); details: FIG. 10, 100 minutes exposure, 7 logs inoculum
[5] = system: Escherichia coli; experiment: Microbicidal effect of catheter locking solutions in whole blood; assay type: cell-based; details: 20% by volume, 60 min
[6] = system: Staphylococcus aureus; experiment: as above; assay type: cell-based; details: 20% by volume, 60 min
[7] = system: Streptococcus epidermidis; experiment: as above; assay type: cell-based; details: 20% by volume, 60 min
[8] = system: Candida albicans; experiment: as above; assay type: cell-based; details: 20% by volume, 60 min
[9] = system: Staphylococcus aureus, Streptococcus epidermidis, Escherichia coli and Candida albicans; experiment: Microbicidal effect of catheter locking solutions in whole blood, test inoculums overall; assay type: cell-based; details: 20%, one hour in whole blood
[10] = system: fresh sheep blood; experiment: Activated blood clotting time (Hemochron meter)
[11] = Table 21, 0.5% W/V fatty acid, free or emulsified in 0.4% W/V DLL
[12] = 2.5 mg/ml, Table 5, de-lipidised
[13] = 5.0 mg/ml, Table 5, de-lipidised
[14] = 10 mg/ml, Table 5, de-lipidised
[15] = 2.5 mg/ml, Table 4, lipids as purchased
[16] = 5.0 mg/ml, Table 4, lipids as purchased
[17] = 10 mg/ml, Table 4, lipids as purchased
[18] = Table 22, low dose, listed as Free caprylic acid 0.05%
[19] = Table 22, low dose, listed as Free caprylic acid 0.1%

Molecule | % Adhesion ([1]; Table 21) | % inhibition ([1]; Table 21) | Test Count/100 BEC [1, 11] | viable count (log number) ([2]; 0 Seconds at 37° C.) | viable count (log number) ([2]; 60 Seconds at 37° C.) | viable count (log number) ([2]; 120 Seconds at 37° C.) | viable count (log number) ([2]; 180 Seconds at 37° C.) | viable count (log number) ([2]; 240 Seconds at 37° C.) | viable count (log number) ([2]; 300 Seconds at 37° C.) | viable count (log number) ([2]; 360 Seconds at 37° C.) | further results
CCCCCCCCCCCC(=O)O [Free lauric acid, lauric acid] | 95% | 5% | 450 | – | – | – | – | – | – | – | –
CCCCCCCCC(=O)O [Free pelargonic acid, pelargonic acid] | 84% | 16% | 360 | 6.94 log | 6.55 log | 6.31 log | 5.96 log | 5.67 log | 5.83 log | 5.27 log | –
CC(C)=CCC[C@@H](C)[C@H]1CC[C@@]2(C)C3=C(CC[C@]12C)[C@@]1(C)CC[C@H](O)C(C)(C)[C@@H]1CC3 [DL L] | – | – | – | – | – | – | – | – | – | – | % inhibition at 2.5 mg/ml ([1]; 2.5 mg/ml, Table 5): 54%; Candida albicans per 100 Buccal Epithelial Cell [1, 12]: 247; incremental increase in adhesion inhibitory effect achieved by de-lipidisation (in brackets) ([1]; 2.5 mg/ml): +13%; Candida albicans per 100 Buccal Epithelial Cell [1, 13]: 91; Candida albicans per 100 Buccal Epithelial Cell [1, 14]: 49
Bovine Serum Albumin [BSA, reference compound] | – | – | – | – | – | – | – | – | – | – | % inhibition at 2.5 mg/ml ([1]; 2.5 mg/ml, Table 4): 19%; Candida albicans per 100 Buccal Epithelial Cell [1, 15]: 400; Candida albicans per 100 Buccal Epithelial Cell ([1]; 2.5 mg/ml, Table 6, water or 100 mM salt pH 4.5, with/without BSA, listed as BSA Sod′ Lactate): 408; Candida albicans per 100 Buccal Epithelial Cell ([1]; 2.5 mg/ml, Table 6, water or 100 mM salt pH 4.5, with/without BSA, listed as BSA Sod′ citrate): 393; Candida albicans per 100 Buccal Epithelial Cell ([1]; 2.5 mg/ml, Table 6, water or 100 mM salt pH 4.5, with/without BSA, listed as BSA: water): 438; Candida albicans per 100 Buccal Epithelial Cell [1, 16]: 379; % inhibition at 5 mg/ml ([1]; Table 6, listed as BSA Sod′ Lactate): 21%; Candida albicans per 100 Buccal Epithelial Cell ([1]; 5.0 mg/ml, Table 6, listed as BSA Sod′ Lactate): 372; % inhibition at 5 mg/ml ([1]; Table 6, listed as BSA Sod′ citrate): 22%; Candida albicans per 100 Buccal Epithelial Cell ([1]; 5.0 mg/ml, Table 6, listed as BSA Sod′ citrate): 369; % inhibition at 5 mg/ml ([1]; Table 6, listed as BSA: water): 12%; Candida albicans per 100 Buccal Epithelial Cell ([1]; 5.0 mg/ml, Table 6, listed as BSA: water): 400; Candida albicans per 100 Buccal Epithelial Cell [1, 17]: 303; Candida albicans per 100 Buccal Epithelial Cell ([1]; 10 mg/ml, Table 6): 362; % Adhesion ([1]; Table 16): 83%; % inhibition ([1]; Table 16): 17%; Count/100 BEC ([1]; Table 16, 100 mM sodium citrate pH 4.5, 0.5% Methocel, lipids 0.1%): 425
CCCCCCCC(=O)O [Free caprylic acid, caprylic acid] | 93% | 7% | 400 | 6.94 log | 6.79 log | 6.83 log | 6.21 log | 6.33 log | 5.89 log | 6.17 log | % Adhesion [1, 18]: 94%; % inhibition [1, 18]: 6%; Test Count/100 BEC [1, 18]: 459; % Adhesion [1, 19]: 95%; % inhibition [1, 19]: 5%; Test Count/100 BEC [1, 19]: 466; factor of amplification of adhesion inhibitory effect in emulsified form ([1]; emulsified versus free): 14; clotting time [3]: approximately 40 seconds
CCCCCC(=O)O [Free caproic acid, caproic acid] | 89% | 11% | 380 | 7.87 log | 7.17 log | 6.82 log | 7.57 log | 6.93 log | 6.47 log | 6.73 log | –
DL BSA: Bovine Serum Albumin treated by the de-lipidisation procedure [reference compound] | – | – | – | – | – | – | – | – | – | – | % inhibition at 2.5 mg/ml ([1]; 2.5 mg/ml, Table 5): 16%; Candida albicans per 100 Buccal Epithelial Cell [1, 12]: 431; incremental increase in adhesion inhibitory effect achieved by de-lipidisation (in brackets) ([1]; 2.5 mg/ml): −3%; Candida albicans per 100 Buccal Epithelial Cell [1, 13]: 393; Candida albicans per 100 Buccal Epithelial Cell [1, 14]: 329
C=CCCCCCCCCC(=O)O [Free undecylenic acid, undecylenic acid] | 86% | 14% | 448 | 7.87 log | 7.19 log | 6.99 log | 6.57 log | 6.83 log | 6.67 log | 6.31 log | –
CCCCCCCCCC(=O)O [Free capric acid, capric acid] | 90% | 10% | 386 | 6.94 log | 6.32 log | 6.48 log | 6.73 log | 6.36 log | 5.97 log | 6.11 log | –
CCCCCCCCCCCCCC(=O)O [Free myristic acid, myristic acid] | 92% | 8% | 436 | 7.38 log | 7.27 log | 7.84 log | 6.93 log | 7.11 log | 6.26 log | 6.84 log | –
CC(C)=CCC[C@@H](C)[C@H]1CC[C@@]2(C)C3=C(CC[C@]12C)[C@@]1(C)CC[C@H](O)C(C)(C)[C@@H]1CC3 [L, Lanosterol] | – | – | – | – | – | – | – | – | – | – | Candida albicans per 100 Buccal Epithelial Cell [1, 15]: 306; Candida albicans per 100 Buccal Epithelial Cell [1, 16]: 236; Candida albicans per 100 Buccal Epithelial Cell [1, 17]: 133; inhibition at 2500 µg/mL ([1]; Candida albicans, Epithelial cell, read-out: % inhibition at 2.5 mg/ml): 41%
[H]/N=C(\N/C(=N/[H])NCCCCCCNC(=N)NC(=N)Nc1ccc(Cl)cc1)Nc1ccc(Cl)cc1 [chlorhexidine, chlorhexidine gluconate] | – | – | – | – | – | – | – | – | – | – | logs remaining [4]: 1 logs
Heparin | – | – | – | – | – | – | – | – | – | – | viable count in whole blood (log number) [5]: 7.92 log; viable count in whole blood (log number) [6]: 8.39 log; viable count in whole blood (log number) [7]: 8.22 log; viable count in whole blood (log number) [8]: 6.94 log; microbicidal effect in words [9]: no microbial inhibition; Activated Blood Clotting Time ([10]; 5% incorporation in whole blood): 284 s; Activated Blood Clotting Time ([10]; 10% incorporation in whole blood): 423 s; Activated Blood Clotting Time ([10]; 15% incorporation in whole blood): 601 s; Activated Blood Clotting Time ([10]; 20% incorporation in whole blood): 1023 s

From patent publication US12208075B2, “Antimicrobial compositions containing free fatty acids” (priority 2009, dated 2025)
